Where two headings read alike, the source gives them in different places.

In assay [1] the test system is polyoma virus transformed BHK21/c13 cells, line S100T1. Briefly: Collocation inhibition test: clonal growth in sparsely and densely seeded areas of a cell density gradient of S100T1 cells in soft agar (Exp 13, 17, 19-26).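 As to all read-outs here: soft agar cultures in 24-well plates with a cell density gradient in the top layer, compounds applied from DMSO stocks, clonal growth scored in sparse versus dense areas.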 To be noted: for Clonal growth read on the 3rd day after seeding / Clonal growth read on the 6th day after seeding: Exp 17.
In assay [2] the test system is polyoma virus transformed BHK21/c13 cells, clone S100T1. The assay is described as follows: Clonal test: clonal growth of S100T1 cells in soft agar (Exp 2, 4, 6, 15, 16). The note with it: for Clonal growth: Exp 15, plate read the 5th day. The assay is classed as cell-based, hamster. Here is the method: The clonal test comprises: • 1. seeding cells in soft agar optionally containing growth factor(s); • 2. handling or incubation of special gels (e.g. ultra low gelling temperature agarose), including the production of cell density gradients. • 3. incubating in suitable temperature and atmosphere and; • 4. regular monitoring of the cells and development of clones.
The clonal test can be directed in fluid medium or in soft agar medium. Usually only transformed cells will form clones in soft agar.
After seeding and mixing, the tubes were placed in the refrigerator for about 1 hour to consolidate the ultra low melting point agarose.
120000 S100T1 cells of a polyoma virus transformed BHK21/c13 cell line, were seeded in 1 ml soft agar medium in Falcon 50 ml centrifuge tubes. […] On the top of the agar layer 0.5 ml fluid medium was added.
Agar cultures were prepared in wells of 24 well Falcon tissue culture plate. […] Insulin (Actrapid, Novo) was added in a concentration of 0.1 i.u./ml to BHK21/c13 cell cultures only.
The cells were all single cells. Each well received 32000 cells (Table 4). Plate: 24 wells Falcon tissue culture plate received a bottom layer composed as in Table 3:
The cells were all single cells.
The wells contained two layers, each of 0.3 ml agar.
The agarose was added to double distilled water and solved by heating in micro oven.

The mark [3] stands for this setting: High: #1 Colchicine 1, #2 Podophyllotoxin 3, #3 Etoposide 200, #4 4-OH—OPB 6.7 μM in wells, #5 DMSO 29.2 μl.
Setting [4] is: Low: #1 Colchicine 0.1, #2 Podophyllotoxin 0.3, #3 Etoposide 20, #4 4-OH—OPB 0.67 μM in wells, #5 DMSO 1.16 μl.
Where [5] appears, read: Medium: #1 Colchicine 0.3, #2 Podophyllotoxin 0.9, #3 Etoposide 60, #4 4-OH—OPB 2 μM in wells, #5 DMSO 6.8 μl.
[6] abbreviates: Experiment 23, A (area with high cell density), High concentration, 48 hours.
[7] abbreviates: Experiment 23, A (area with high cell density), Low concentration, 48 hours.
The mark [8] stands for this setting: Experiment 23, A (area with high cell density), Medium concentration, 48 hours.
[9] abbreviates: Experiment 23, B (area with low cell density), High concentration, 48 hours.
Setting [10] is: Experiment 23, B (area with low cell density), Low concentration, 48 hours.
[11] abbreviates: Experiment 23, B (area with low cell density), Medium concentration, 48 hours.
Where [12] appears, read: Summary Table 3 of analogue tests (experiments 22-25), H (high cell density), High concentration.
The mark [13] stands for this setting: Summary Table 3 of analogue tests (experiments 22-25), H (high cell density), Low concentration.
The mark [14] stands for this setting: Summary Table 3 of analogue tests (experiments 22-25), H (high cell density), Medium concentration.
Where [15] appears, read: Summary Table 3 of analogue tests (experiments 22-25), L (low cell density), High concentration.
Setting [16] is: Summary Table 3 of analogue tests (experiments 22-25), L (low cell density), Low concentration.
Setting [17] is: Summary Table 3 of analogue tests (experiments 22-25), L (low cell density), Medium concentration.
The mark [18] stands for this setting: Exp 15, 5th day, High conc., μM in wells: No 1 (4-OH—OPB) 20, 2 (Colchicine) 0.1, 3 (Diphenylhydantoin) 100, 4 (Podophyllotoxin) 0.3, 5 (Piroxicam) 50, 6 (Diclofenak) 100, ” = as line above.
[19] abbreviates: Exp 15, 5th day, Low conc., μM in wells: No 1 (4-OH—OPB) 2, 2 (Colchicine) 0.01, 3 (Diphenylhydantoin) 10, 4 (Podophyllotoxin) 0.03, 5 (Piroxicam) 5, 6 (Diclofenak) 10, 7 (Ibuprofen) 100, 8 (Naproxen) 50, 9 (Acetylsalicylic acid) 100, ” = as line above.
The mark [20] stands for this setting: Low conc., μM in wells: No 1 (4-OH—OPB) 2, 2 (Colchicine) 0.01, 3 (Diphenylhydantoin) 10, 4 (Podophyllotoxin) 0.03, 5 (Piroxicam) 5, 6 (Diclofenak) 10, 7 (Ibuprofen) 100, 8 (Naproxen) 50, 9 (Acetylsalicylic acid) 100.
[21] abbreviates: 4-OH-OPB analogues, S100T1 in soft agar, high concentration.
[22] abbreviates: 4-OH-OPB analogues, S100T1 in soft agar, low concentration.
[23] abbreviates: 4-OH-OPB analogues, S100T1 in soft agar, medium concentration.

As for `Oc1ccc(N=Nc2ccccc2)cc1` [#1, p-hydroxy-azobenzene], the “Clonal growth, H: high density area of cell gradient, Low” value (shortened to “Clonal growth, H … Low”) in assay [1] is “+++”. The “Clonal growth, H: high density area of cell gradient, Medium” value (from here on “Clonal growth, H … Medium”) in assay [1] was “+++”. Further, the “Clonal growth, L: low density area of cell gradient, High” value (“Clonal growth, L … High” below) in assay [1] is “+−”. Also, the “Clonal growth, L: low density area of cell gradient, Low” value in assay [1] was “++”. Besides, the “Clonal growth, L: low density area of cell gradient, Medium” value (shortened to “Clonal growth, L … Medium”) in assay [1] was “++”. In assay [1], the “Clonal inhibition by 4-OH-OPB analogues, summary of Exp 22-25” value is “complete inhibition of growth in sparsely seeded areas”. The “Clonal growth read on the 3rd day after seeding” value in assay [1] (setting [3]) is “−”; in assay [1] (setting [4]), “++”; in assay [1] (setting [5]), “++”. Besides, the “Clonal growth read on the 6th day after seeding” value in assay [1] (setting [4]) and in assay [1] (setting [5]) was “+” throughout. In addition, the Clonal growth entry in assay [1] (setting [6]) is on record as “+(+)”; in assay [1] (setting [7]), “+++”; in assay [1] (setting [8]) it was “+++”; in assay [1] (setting [9]) it was “+−”; in assay [1] (setting [10]), “++”; in assay [1] (setting [11]), “++”. Further, the Clonal growth result in assay [1] (setting [12]) is recorded as “+(+)”; in assay [1] (setting [13]) it was “+++”; in assay [1] (setting [14]), “+++”; in assay [1] (setting [15]) it was “+−”; in assay [1] (setting [16]), “++”; in assay [1] (setting [17]) it was “++”. The Clonal growth entry in assay [2] (High conc., μM in wells: No 1 (4-OH—OPB) 20, 2 (Colchicine) 0.1, 3 (Diphenylhydantoin) 100, 4 (Podophyllotoxin) 0.3, 5 (Piroxicam) 50, 6 (Diclofenak) 100, 7 (Ibuprofen) 1000, 8 (Naproxen) 500, 9 (Acetylsalicylic acid) 1000) is “−”; in assay [2] (setting [20]), “−”. The Significance result in assay [2] (setting [18]) and in assay [2] (setting [19]) was “yes” throughout.
Turning to `CCCCC(O)(C(=O)Nc1ccccc1)C(=O)Nc1ccc(O)cc1` (centres unmarked) [#2, 2-Butyl-2-hydroxy-N-(4-hydroxy-phenyl)-N′-phenyl malonamide], the “Clonal growth, H: high density area of cell gradient, High” value in assay [1] (setting [21]) was “++”. Moreover, in assay [1] (setting [21]), the “Clonal growth, L … High” value is listed as “−”. For the same compound, the “Clonal growth, H … Low” value in assay [1] (setting [22]) was “++(+)”. Besides, the “Clonal growth, L: low density area of cell gradient, Low” value in assay [1] (setting [22]) is recorded as “++”. Moreover, the “Clonal growth, H … Medium” value in assay [1] (setting [23]) is “++”. Further, the “Clonal growth, L … Medium” value in assay [1] (setting [23]) was “++”. The entries for the “Clonal growth read on the 6th day after seeding” value in assay [1] (setting [4]) and in assay [1] (setting [5]) were “+” and “(+”, respectively. The Clonal growth result in assay [1] (setting [6]) is “++”; in assay [1] (setting [7]), “++(+)”; in assay [1] (setting [8]), “++”; in assay [1] (setting [9]), “−”; in assay [1] (setting [10]), “++”; in assay [1] (setting [11]) it was “++”. The Clonal growth entry in assay [1] (setting [12]) is recorded as “++”; in assay [1] (setting [13]) it was “++(+)”; in assay [1] (setting [14]), “++”; in assay [1] (setting [15]) it was “−”; in assay [1] (setting [16]), “++”; in assay [1] (setting [17]), “++”. In assay [2] (setting [20]), the Clonal growth result is given as “++”. In assay [1] (sparsely seeded areas while densely seeded areas of the same culture showed significant growth), the “Clonal inhibition by 4-OH-OPB analogues, summary of Exp 22-25” value was “complete inhibition of growth in sparsely seeded areas”. Moreover, the Significance entry in assay [2] (setting [18]) and in assay [2] (setting [19]) was “no” throughout.
With `CCCCC(=O)C(=O)Nc1ccccc1` [#3, 2-oxo-hexanoic acid phenylamide], in assay [1] (setting [21]), the “Clonal growth, H: high density area of cell gradient, High” value was “++”. Also, the “Clonal growth, L … High” value in assay [1] (setting [21]) is “++”. For the same compound, the “Clonal growth, H … Low” value in assay [1] (setting [22]) was “++(+)”. Moreover, in assay [1] (setting [22]), the “Clonal growth, L: low density area of cell gradient, Low” value was “++(+)”. Besides, the “Clonal growth, H … Medium” value in assay [1] (setting [23]) is recorded as “++(+)”. Further, in assay [1] (setting [23]), the “Clonal growth, L … Medium” value was “++(+)”. In addition, the “Clonal growth read on the 3rd day after seeding” value in assay [1] (setting [3]) and in assay [1] (setting [5]) was “(+)” each time. Further, the “Clonal growth read on the 6th day after seeding” value is on record as “−” in assay [1] (setting [3]) and “+” in assay [1] (setting [4]). In addition, in assay [1] (Exp 23, 180000 S100T1 cells/well), the Effect on growth entry is listed as “did not show significant growth inhibition at all”. For the same compound, the Clonal growth result in assay [1] (setting [6]) is listed as “++”; in assay [1] (setting [7]), “++(+)”; in assay [1] (setting [8]), “++(+)”; in assay [1] (setting [9]), “++”; in assay [1] (setting [10]), “++(+)”; in assay [1] (setting [11]) it was “++(+)”. The Clonal growth entry in assay [1] (setting [12]) is on record as “++”; in assay [1] (setting [13]), “++(+)”; in assay [1] (setting [14]), “++(+)”; in assay [1] (setting [15]) it was “++”; in assay [1] (setting [16]), “++(+)”; in assay [1] (setting [17]), “++(+)”. In assay [2] (setting [20]), the Clonal growth result was “++”. The Significance result in assay [2] (setting [18]) and in assay [2] (setting [19]) was “”” each time.
As for `CC(C)Cc1ccc(C(C)C(=O)O)cc1` (centres unmarked) [Ibuprofen], the “Effect on clonal growth at 100 μM” value in assay [2] (Exp 15, 32000 S100T1 cells/well) was “insignificant inhibition”. Further, in assay [2] (Exp 16, read after 14 days, Ibuprofen No 8, ca. 223 μM), the Significance of results was “possible”. Also, the Significance result is “possible” in assay [2] (Exp 16 day 14, Ibuprofen No 8, 215 μM); “doubtful*” in assay [2] (Exp 16 day 14, Ibuprofen No 8, 464 μM, doubtful because the solvent DMSO might be inhibiting); “probable” in assay [2] (Exp 16 day 21, Ibuprofen No 8, 215 μM); “doubtful*” in assay [2] (Exp 16 day 21, Ibuprofen No 8, 464 μM, *see conclusion (DMSO)). Besides, the Growth entry is listed as “(+)” in assay [2] (Exp 16 day 14, Ibuprofen No 8, 215 μM in wells); “(+))” in assay [2] (Exp 16 day 14, Ibuprofen No 8, 464 μM in wells); “(+))” in assay [2] (Exp 16 day 21, Ibuprofen No 8, 215 μM in wells); “(+))” in assay [2] (Exp 16 day 21, Ibuprofen No 8, 464 μM in wells). In assay [2] (S100T1 in soft agar), the “Anti-clonal effect, summary of Exp 15” value is recorded as “showed possible clonal inhibition at low”. In assay [2] (S100T1 in soft agar), the “Anti-clonal effect, summary of Exp 16” value is “Ibuprofen and Naproxen possibly inhibited and Acetyl”.

The record behind these values is patent publication US20060121449A1, “Method for selection of compounds which inhibit clonal cell growth and use thereof” (priority 2002, published 2006).
